Results as given in ChEMBL document CHEMBL1144600, “Efficient synthesis and biological evaluation of omega-oxygenated analogues of vitamin K2: study of modification and structure-activity relationship of vitamin K2 metabolites” (2007).
The source made the active and inactive calls. The rule behind the calls is not given here.

System: HL-60
Assay: Apoptosis inducing activity in human HL60 cells at 10 uM after 74 hrs
Format: functional

SMILES	Activity
CC1=C(C/C=C(\C)CC/C=C(\C)CC/C=C(\C)CC/C=C(\C)C=O)C(=O)c2ccccc2C1=O	inactive
CC1=C(C/C=C(\C)CC/C=C(\C)CO)C(=O)c2ccccc2C1=O	inactive
CC1=C(C/C=C(\C)CC/C=C(\C)CC/C=C(\C)C=O)C(=O)c2ccccc2C1=O	inactive
CC1=C(C/C=C(\C)CC/C=C(\C)C=O)C(=O)c2ccccc2C1=O	inactive
CC1=C(C/C=C(\C)CC/C=C(\C)CC/C=C(\C)CC/C=C(\C)CO)C(=O)c2ccccc2C1=O	15%
CC1=C(C/C=C(\C)CC/C=C(\C)CC/C=C(\C)CO)C(=O)c2ccccc2C1=O	75%
